{"source": "patent US11319348B2", "about": "“Synthetic beta-amyloid peptides capable of forming stable antigenic oligomers” (The Regents of the University of California, priority 2016, dated 2022)", "key": {"[1]": {"experiment": "Tricine SDS-PAGE with silver staining", "format": "physicochemical", "excerpt": "Trimer 3 migrates as a single band at a molecular weight consistent with a hexamer. Trimer 4, in contrast, migrates as two distinct bands: a band consistent with the molecular weight of a dodecamer, and a band consistent with the molecular weight of a trimer.\nPeptide 8 assembles to form a hexamer in SDS-PAGE. […] To further confirm the oligomerization state of […], it was compared to covalent trimers 3 and 4 (FIGS. 19A and 19B), which was previously determined to migrate respectively as 10.6 kDa hexamers and 21.2 kDa dodecamers in equilibrium with the 5.3 kDa trimers. Peptide 8 migrates at the same molecular weight as the hexamer band of trimer 3, providing further evidence that peptide 8 assembles to form a hexamer in SDS-PAGE.\nThe oligomerization of peptides 1 and 2 and trimers 3 and 4 was studied by Tricine SDS-PAGE.\nEach peptide or trimer was dissolved in deionized water to a concentration of 10 mg/mL. An aliquot of the 10 mg/mL solutions was diluted with deionized water to create 2 mg/mL solutions of peptides 1 and 2, or 0.12 mg/mL solutions of trimers 3 and 4. The […] of peptides 1 and 2, as well as the 0.12 mg/mL solutions of trimers 3 and 4 were further diluted with 2×SDS-PAGE loading buffer (100 mM Tris buffer at pH 6.8, 20% (v/v) glycerol, and 4% SDS) to create 1 mg/mL working solutions of peptides 1 and 2, and 0.06 mg/mL working solutions of trimers 3 and 4. A 5 μL aliquot of each working solution was run on a 16% polyacrylamide gel with a 4% stacking polyacrylamide gel. The gels were run at a constant 60 volts at 4° C.\nStaining with silver nitrate was used to visualize peptides 1 and 2 and trimers 3 and 4 in the SDS-PAGE gel. Briefly, the gel was removed from the casting glass and rocked in fixing solution (50% (v/v) methanol and 5% (v/v) acetic acid in deionized water) for 20 min. Next, the fixing solution was discarded and the gel was rocked in 50% (v/v) methanol for 10 min. Next, the 50% methanol was discarded and the gel was rocked in deionized water for 10 min. Next, the water was discarded and the gel was rocked in 0.02% (w/v) sodium thiosulfate in deionized water for 1 min. The sodium thiosulfate was discarded and the gel was rinsed with deionized water (2×). After the last rinse, the gel was submerged in chilled 0.1% (w/v) silver nitrate in deionized water and rocked at 4° C. for 20 min. Next, the silver nitrate solution was discarded and the gel was rinsed with deionized water (2×). To develop the gel, the gel was incubated in developing solution (2% w/v sodium carbonate, 0.04% formaldehyde until the desired intensity of staining was reached (˜1-3 min). When the desired intensity of staining was reached, the development was topped by discarding the developing solution and submerging the gel in 5% acetic acid."}, "[2]": {"tested_on": "A11 antibody", "experiment": "dot blot with A11 antibody", "format": "binding", "excerpt": "The LDH release and caspase-3 activation studies indicate that trimers 3 and 4 behave similarly to oligomers of full-length Aβ, providing evidence for the biological significance of the triangular assembly. To further evaluate how the biological properties of trimers 3 and 4 compare to those of full-length Aβ, the reactivity of trimers 3 and 4 with the conformation specific antibody A11 was examined. […] The structures of the A oligomers recognized by the A11 antibody are not known. We investigated whether the A11 antibody recognizes trimers 3 and 4 by dot blot analysis.\nA 10 mg/mL stock solution of peptides 1 or 2, or trimers 3 or 4 was prepared gravimetrically by dissolving 1 mg of each compound in 100 μL of deionized water that was either filtered through a 0.2 μm syringe filter. An aliquot of each stock solution was diluted with deionized water to make 3 mg/mL solutions. The 3 mg/mL solutions were then serially diluted with deionized water to create 1.5 mg/mL, 0.75 mg/mL, and 0.37 mg/mL solutions. A 5 μL aliquot of each solution from the serial dilution was combined with 5 μL of a 2× solution of phosphate buffered saline (PBS) at pH 7.4 to generate 1.5 mg/mL, 0.75 mg/mL, and 0.37 mg/mL, and 0.18 mg/mL buffered solutions of peptides 1 or 2 or trimers 3 or 4. A 1-μL aliquot of each buffered solution was spotted onto a nitrocellulose membrane and allowed to aft dry (˜5 min). Non-reactive sites were blocked with 10% (w/v) non-fat powdered milk in low-Tween Tris-buffered saline (TBS-IT: 20 mM Tris, 137 mM NaCl; 0.01% Tween 20, pH 7.6) for 1 h at room temperature with rocking. The membrane was then incubated while rocking overnight at 4° C. in primary A11 antibody (200 μg/mL) in 5% non-fat powdered milk in TBS-IT. The next day, the membrane was washed with TBS-IT for 5 min (3×). The membrane was then incubated while rocking with horseradish peroxidase conjugated goat anti-rabbit antibody (100 μg/mL) (Jackson ImmunoResearch catalog #111-035-003) in 5% non-fat powdered milk in TBS-IT for 1 h at room temperature. The membrane was then washed with TBS-IT for 5 min (3×). A 10 mL portion of chemiluminescence substrate (Thermo Scientific SuperSignal West Femto Maximum Sensitivity Substrate, product #34095) was prepared according to manufacturer's protocol and poured onto the membrane. The membrane was allowed to incubate in the chemiluminescence substrate for ˜10 min before imaging. The blot was imaged using a standard digital SLR camera."}}, "note": "Non-standard residues stand in square brackets, D forms with d. No end group written: not given here. NMeF = CN[C@@H](Cc1ccccc1)C(=O)O; Orn = NCCC[C@H](N)C(=O)O"}
{"substance": "peptide 1: macrocyclic β-sheet peptide: Aβ17-23 and Aβ30-36 strands linked by two δOrn turns, Orn35, N-methyl on G33 (Seq. ID 18-19)", "values": [{"measurement": "oligomer size by SDS-PAGE", "setting": "[1]", "result": "1-2"}, {"measurement": "A11 reactivity", "setting": "[2]", "result": "no"}, {"measurement": "reaction with A11 antibody", "setting": "[2]", "result": "do not"}]}
{"substance": "peptide 2: macrocyclic β-sheet peptide: Aβ17-23 and Aβ30-36 strands linked by two δOrn turns, Orn35, N-methyl on F20 (Seq. ID 20-21)", "values": [{"measurement": "oligomer size by SDS-PAGE", "setting": "[1]", "result": "1-2"}, {"measurement": "oligomer state by migration in SDS-PAGE", "setting": "[1]", "result": "monomer or dimer"}, {"measurement": "A11 reactivity", "setting": "[2]", "result": "no"}, {"measurement": "reaction with A11 antibody", "setting": "[2]", "result": "do not"}]}
{"substance": "trimer 3: symmetric tris-disulfide crosslinked trimer generated from peptide 3 (chain 1 [Orn]CVFFCED; chain 2 [Orn]AIIGL[Orn]V; not fully specified (some residues); also: symmetric tris-disulfide crosslinked trimer, macrocyclic by macrolactamization, linkage of strands not given here)", "values": [{"measurement": "oligomer size by SDS-PAGE", "setting": "[1]", "result": 6}, {"measurement": "oligomer state by migration in SDS-PAGE", "setting": "[1]", "result": "hexamer"}, {"measurement": "A11 reactivity", "setting": "[2]", "result": "yes"}, {"measurement": "reaction with A11 antibody", "setting": "[2]", "result": "react with the A11 antibody"}]}
{"substance": "trimer 4: symmetric tris-disulfide crosslinked trimer generated from peptide 4 (chain 1 [Orn]CVF[NMeF]CED; chain 2 [Orn]AIIGL[Orn]V; also: symmetric tris-disulfide crosslinked trimer, macrocyclic by macrolactamization, linkage of strands not given here)", "values": [{"measurement": "A11 reactivity", "setting": "[2]", "result": "yes"}, {"measurement": "reaction with A11 antibody", "setting": "[2]", "result": "react with the A11 antibody"}]}
